These are literature values, as cited in patent publication US20260151310A1, “COSMETIC FOR HAIR GROWTH, COSMETIC RAW MATERIAL AND COSMETIC, AND METHOD FOR PRODUCING THE SAME” (Teika Pharmaceutical Co., Ltd., priority 2021, published 2026).

The test system of this series is hair density and hair thickness. The settings on record: compared with positive control minoxidil; Non Patent Literature 1.

As for `[O-][n+]1ccccc1[S-].[O-][n+]1ccccc1[S-].[Zn+2]` [pyrithione zinc], the “Effect on hair density and hair thickness” value was “less than half the effect of a positive control minoxidil”.
